Residue numbers refer to the chain shown, from its start. Values joined by “and” are separate entries in the source; they are usually repeats but may differ in a detail not shown here. Equal entries are not always repeated.
Columns and labels:
[1] = target: T1, PfCRT variant E278A (Plasmodium falciparum, UniProt Q9N623, A220S/E278A/I356T/K76T/M74I/N326S/N75E/Q271E/R371I); test: CQ uptake assay, oocytes expressing E278A; type: cell-based
T1 sequence (Q9N623 1-424 M74I/N75E/K76T/A220S/Q271E/E278A/N326S/I356T/R371I): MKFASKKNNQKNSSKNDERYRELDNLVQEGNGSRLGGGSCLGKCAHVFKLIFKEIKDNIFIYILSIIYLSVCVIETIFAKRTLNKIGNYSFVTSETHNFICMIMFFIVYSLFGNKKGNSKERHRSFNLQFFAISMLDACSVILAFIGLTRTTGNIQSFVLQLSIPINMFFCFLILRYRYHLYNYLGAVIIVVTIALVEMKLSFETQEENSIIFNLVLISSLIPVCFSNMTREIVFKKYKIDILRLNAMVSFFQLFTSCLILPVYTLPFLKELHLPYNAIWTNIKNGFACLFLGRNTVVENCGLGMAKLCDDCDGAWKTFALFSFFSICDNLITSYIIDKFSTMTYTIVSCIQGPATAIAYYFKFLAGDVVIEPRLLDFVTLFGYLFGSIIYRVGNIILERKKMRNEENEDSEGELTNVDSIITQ
Method: (§1) Site-directed mutagenesis of PfCRT^Dd2 was performed as described using the megaprimer method with overlap extension[21],[54]. The primer pairs used are listed in Supplementary Table 6. Please note that a codon-optimized and oocyte-adapted version of PfCRT^Dd2 was used[22] (Supplementary Fig. 16). The resulting DNA fragment was cloned into the SP64T expression vector and verified by sequencing.
(§2) Oocytes were obtained as described previously. Briefly, adult (>2 years old) female X. laevis frogs (NASCO) were anesthetized in a cooled solution of ethyl 3-amino benzoate methanesulfonate (0.1%, w/v), followed by a surgical removal of parts of the ovary. The ovary lobes were carefully dissected and small pieces of oocytes were incubated in Ca^2+-free ND96 buffer (96 mM NaCl, 2 mM KCl, 1 mM MgCl2 buffered with 5 mM HEPES/NaOH, pH 7.5) supplemented with collagenase D (0.1%, w/v; Roche), BSA (0.5%, w/v), and 9 mm Na2HPO4 at 18 °C for 14-16 h while gentle shaking. After incubation, the oocytes were carefully washed several times with ND96 buffer (96 mM NaCl, 2 mM KCl, 1.8 mM CaCl2, 1 mM MgCl2 buffered with 5 mM HEPES/NaOH, pH 7.5) supplemented with 100 mg l^−1 gentamycin). Defolliculated and healthy-looking stage V-VI oocytes were manually selected for RNA microinjection. The RNA was generated as following: The codon-optimized sequences of PfCRT variants were cloned into the pSP64T expression vector. After vector linearization using the restriction endonucleases BamHI or SalI (New England Biolabs), transcription was performed using the in vitro SP6 mMessage mMachine Kit (Ambion)[34]. The obtained RNA was kept at −80 °C and diluted with nuclease-free water to a concentration of 0.6 μg μl^−1. Precision-bore glass capillary tubes (3.5-inch glass capillaries; Drummond Scientific Co.) were pulled on a vertical puller (P-87 Flaming/Brown micropipette puller, Sutter Instrument Co.), graduated, and placed on a microinjector (Nanoject II Auto-Nanoliter Injector, Drummond Scientific Co.). 50 nl of nuclease-free water alone (control oocytes) or 50 nl of 0.6 μg μl^−1 RNA were injected under stereomicroscopic control. Injected oocytes were incubated for 46–72 h at 18 °C with twice-daily buffer changes before usage in experiments.
(§3) Drug uptake assays were performed as described previously[21],[22],[24],[34]. […] The direction of radio-labeled drug transport is here from the mostly acidic extracellular solution (pH 4.5 or 6.0, as indicated) into the oocyte cytosol (pH ∼ 7.2), which corresponds to the efflux of drug from the acidic digestive vacuole (pH 5.2) into the parasite cytoplasm (pH 7.2). The topology of PfCRT in the oolemma is such that both the N- and C-terminus face the extracellular milieu[3],[22]. In the parasite, the N- and C-terminus face the lumen of the digestive vacuole. CQ uptake kinetics were performed by incubating oocytes in ND96 buffer adjusted to a pH of 4.5, 5.0, 5.5, or 6.0 and supplemented with 50 nM [^3H]CQ and one of 7 different CQ concentrations (10 µM, 50 µM, 100 µM, 200 µM, 300 µM, 400 µM, 500 µM CQ). The reaction was stopped at the 60 min time point, which is in the linear uptake range[22],[34] (Supplementary Fig. 17). […] The radioactivity of each sample was measured using a liquid scintillation analyzer Tri-Carb 4910 TR (PerkinElmer). Oocytes that were injected with water instead of RNA were analyzed in parallel, representing the uptake of a drug by diffusion and/or endogenous permeation pathways. […]

[2] = target: T2, PfCRT variant F291A (Plasmodium falciparum, UniProt Q9N623, A220S/F291A/I356T/K76T/M74I/N326S/N75E/Q271E/R371I); test: CQ uptake assay, oocytes expressing F291A; type: cell-based
T2 sequence (Q9N623 1-424 M74I/N75E/K76T/A220S/Q271E/F291A/N326S/I356T/R371I): T1 sequence (Q9N623 1-424 M74I/N75E/K76T/A220S/Q271E/E278A/N326S/I356T/R371I) with A278E, F291A
Method: as §1, §2, §3

[3] = E278A, 50 µM CQ, 1 h, mean ± SEM
[4] = pH 4.5, single replicates, Fig 1d left
[5] = pH 6.0, single replicates, Fig 1d left
[6] = F291A, 50 µM CQ, 1 h, mean ± SEM

SMILES: CCN(CC)CCCC(C)Nc1ccnc2cc(Cl)ccc12 (stereo not shown) [CQ, chloroquine]
- Activity at pH 4.5 [1, 3]: 1.17 ± 0.07 pmol h-1 oocyte-1
- Activity at pH 6.0 [1, 3]: 2.21 ± 0.24 pmol h-1 oocyte-1
- R-value ([1]; E278A, CQ transport at pH 4.5 / pH 6.0): 0.56 ± 0.10
- E278A transport activity pH 4.5 [1, 4]: 1.19 pmol oocyte-1 h-1 and 1.00 pmol oocyte-1 h-1 and 1.31 pmol oocyte-1 h-1
- E278A transport activity pH 6.0 [1, 5]: 2.40 pmol oocyte-1 h-1 and 2.59 pmol oocyte-1 h-1 and 1.63 pmol oocyte-1 h-1
- Activity at pH 4.5 [2, 6]: 1.61 ± 0.31 pmol h-1 oocyte-1
- Activity at pH 6.0 [2, 6]: 3.23 ± 0.24 pmol h-1 oocyte-1
- R-value ([2]; F291A, CQ transport at pH 4.5 / pH 6.0): 0.52 ± 0.11
- F291A transport activity pH 4.5 [2, 4]: 1.94 pmol oocyte-1 h-1 and 2.47 pmol oocyte-1 h-1 and 0.96 pmol oocyte-1 h-1 and 1.07 pmol oocyte-1 h-1
- F291A transport activity pH 6.0 [2, 5]: 2.78 pmol oocyte-1 h-1 and 3.29 pmol oocyte-1 h-1 and 4.00 pmol oocyte-1 h-1 and 2.84 pmol oocyte-1 h-1

Source: article PMC10349806 (Nature Communications, 2023)
